Data on three molecules can be found in patent US20260199500A1, “Camptothecin Derivative, Conjugate Thereof, Preparation Method Therefor and Medical Use Thereof” (priority 2023, published 2026).

Holding throughout (assay type): cell-based
Test [1] concerns PANC-1 (Pancreatic) cells. As to the kind of experiment: Inhibition of PANC-1 cells by compounds. As to conditions: PY-X (DXD) set to 1. How it is done: (§1) On the day of the experiment, the cells were digested with 0.25% trypsin (Gibco, 25200-072), filtered through a 40 μm sieve, diluted with the corresponding medium to a cell density of 1×10^4 cells/mL, and inoculated into a 96-well white cell culture plate (Beyotime, FCP968), with 100 μL of cells added per well. The culture plate was placed in a 37° C. incubator (Thermo 311) containing 5% C02 and incubated for 24 hours. On the second day, the samples to be tested were prepared as a stock solution at a final concentration of 1M in DMSO (Sigma, D1650), then diluted with the corresponding medium to a final concentration of 200 nM, and subjected to four-fold serial dilutions, resulting in a total of 9 concentrations. 100 μL of the diluted sample was added to each well of the 96-well plate. The plate was placed in a 37° C. incubator containing 5% CO2 and incubated for 144 hours. The cell culture plate was then removed, and 100 μL of the cell viability assay reagent (CellTiter-Glo® Luminescent Cell Viability Assay, Promega, G7571) was added to each well. The reaction was carried out in the dark at room temperature for 5 minutes. Luminescence values were read using a microplate reader (TECAN SPARK), and data were processed using Graphpad Prism 7 software.

The subject of the next test is DMS53 (SCLC) cells. The experiment in a line: Inhibition of DMS53 cells by compounds. As to conditions: PY-X (DXD) set to 1. How it is done: as §1
The next test relates to H1437 (NSCLC) cells. As to the kind of experiment: Inhibition of H1437 cells by compounds. As to conditions: PY-X (DXD) set to 1. The procedure:
as §1

The subject of test [2] is SW1990 (Pancreatic) cells. The experiment in a line: Inhibition of SW1990 cells by compounds. To be noted: PY-X (DXD) set to 1. The procedure:
as §1

Another test has as its system SW1573 (NSCLC) cells. The experiment in a line: Inhibition of SW1573 cells by compounds. As to conditions: PY-X (DXD) set to 1. How it is done: as §1
The subject of another test is H82 (SCLC) cells. The experiment in a line: Inhibition of H82 cells by compounds. To be noted: PY-X (DXD) set to 1. How it is done: as §1
For another test, the system named is HT-29 (Colon) cells. As to the kind of experiment: Inhibition of HT-29 cells by compounds. To be noted: PY-X (DXD) set to 1. The procedure:
as §1

The test system of another test is H1650 (NSCLC) cells. As to the kind of experiment: Inhibition of H1650 cells by compounds. As to conditions: PY-X (DXD) set to 1. The procedure:
as §1

The test system of a further test is A549 (NSCLC) cells. As to the kind of experiment: Inhibition of A549 cells by compounds. To be noted: PY-X (DXD) set to 1. The procedure: as §1
The next test relates to Colo-205 (Colon) cells. As to the kind of experiment: Inhibition of Colo-205 cells by compounds. As to conditions: PY-X (DXD) set to 1. How it is done: as §1
The subject of the next test is H1975 (NSCLC) cells. The experiment in a line: Inhibition of H1975 cells by compounds. As to conditions: PY-X (DXD) set to 1. How it is done: as §1
A further test has as its system H358 (NSCLC) cells. The experiment in a line: Inhibition of H358 cells by compounds. As to conditions: PY-X (DXD) set to 1. How it is done:
as §1

The test system of a further test is FADU (HNSCC) cells. The experiment in a line: Inhibition of FADU cells by compounds. As to conditions: PY-X (DXD) set to 1. How it is done: as §1
For another test, the system named is H23 (NSCLC) cells. The experiment in a line: Inhibition of H23 cells by compounds. To be noted: PY-X (DXD) set to 1. How it is done:
as §1

Another test concerns PA-1 (Ovarian) cells. The experiment in a line: Inhibition of PA-1 cells by compounds. As to conditions: PY-X (DXD) set to 1. How it is done: as §1
For another test, the system named is N87 gastric cancer cells. As to the kind of experiment: Inhibitory activity of compounds on N87 gastric cancer cells (CellTiter-Glo, 144 h). As to conditions: IC50 of PY-X (DXD) set to 1; values are ratios of measured IC50 to DXD; 144 h. How it is done:
as §1
(§2) PY—Y is referenced in the document (WO2022170971A1); and PY-A is referenced in the document (WO2021148501A1).
Background: ATP-based viability assays read luminescence as a measure of living cells.

Another test concerns OVCAR3 (Ovarian) cells. The experiment in a line: Inhibition of OVCAR3 cells by compounds. As to conditions: PY-X (DXD) set to 1. The procedure:
as §1

The subject of test [3] is MDA-MB-468 breast cancer cells. The experiment in a line: Inhibitory activity of compounds on MDA-MB-468 breast cancer cells (CellTiter-Glo). To be noted: IC50 of PY-X (DXD) set to 1; values are ratios of measured IC50 to DXD. How it is done: as §1, §2

In the case of `CC[C@@]1(O)C(=O)OCc2c1cc1n(c2=O)Cc2c-1nc1cc(F)c(CN)c3c1c2CCC3` [PY-16, (S)-4-(aminomethyl)-9-ethyl-5-fluoro-9-hydroxy-1,2,3,9,12,15-hexahydro-10H,13H-benzo[de]pyrano[3′,4′:6,7]indolizino[1,2-b]quinolin-10,13-dione], in test [1], the “IC50 in PANC-1 cells, ratio to DXD” value worked out at 0.1325. In addition, the “IC50 in DMS53 cells, ratio to DXD” value in the test on DMS53 (SCLC) cells is on record as 0.5137. In the test on H1437 (NSCLC) cells, the “IC50 in H1437 cells, ratio to DXD” value is given as 0.2768. For the same molecule, the “IC50 in SW1990 cells, ratio to DXD” value in [2] was found to be 0.4346. For the same molecule, the “IC50 in SW1573 cells, ratio to DXD” value with SW1573 (NSCLC) cells is recorded as 0.2256. In addition, in the test on H82 (SCLC) cells, the “IC50 in H82 cells, ratio to DXD” value is reported as 0.3391. The “IC50 in HT-29 cells, ratio to DXD” value with HT-29 (Colon) cells is 0.1933. Besides, the “IC50 in H1650 cells, ratio to DXD” value with H1650 (NSCLC) cells is 0.1421. Further, in the test with A549 (NSCLC) cells, the “IC50 in A549 cells, ratio to DXD” value was 0.2053. Moreover, the “IC50 in Colo-205 cells, ratio to DXD” value with Colo-205 (Colon) cells is reported as 0.3082.

`CC[C@@]1(O)C(=O)OCc2c1cc1n(c2=O)Cc2c-1nc1ccc(CO)c3c1c2CCC3` [PY-37A, (S)-9-ethyl-9-hydroxy-4-(hydroxymethyl)-1,2,3,9,12,15-hexahydro-10 h,13 h-benzo[de]pyrano[3′,4′:6,7]indolizino[1,2-b]quinolin-10,13-dione]: the “IC50 in PANC-1 cells, ratio to DXD” value in test [1] is 0.1992. Moreover, the “IC50 in H1437 cells, ratio to DXD” value in the test on H1437 (NSCLC) cells was 0.2619. The “IC50 in SW1990 cells, ratio to DXD” value in [2] is given as 0.2986. In addition, in the test on SW1573 (NSCLC) cells, the “IC50 in SW1573 cells, ratio to DXD” value was determined as 0.2884. Also, the “IC50 in H82 cells, ratio to DXD” value in the test with H82 (SCLC) cells is 0.4153. In the test with HT-29 (Colon) cells, the “IC50 in HT-29 cells, ratio to DXD” value is 0.2181. Further, in the test with H1650 (NSCLC) cells, the “IC50 in H1650 cells, ratio to DXD” value is 0.2611. Besides, in the test with A549 (NSCLC) cells, the “IC50 in A549 cells, ratio to DXD” value is reported as 0.2044. Also, the “IC50 in Colo-205 cells, ratio to DXD” value in the test on Colo-205 (Colon) cells was determined as 0.2763.

With “exatecan mesylate [PY-E, reference compound]”, in the test with H1975 (NSCLC) cells, the “IC50 in H1975 cells, ratio to DXD” value was 0.0963. Besides, the “IC50 in H358 cells, ratio to DXD” value in the test on H358 (NSCLC) cells came out at 0.2694. For the same molecule, in test [1], the “IC50 in PANC-1 cells, ratio to DXD” value was 0.1086. Further, the “IC50 in FADU cells, ratio to DXD” value with FADU (HNSCC) cells came out at 0.4464. Besides, the “IC50 in H1437 cells, ratio to DXD” value in the test with H1437 (NSCLC) cells was 0.2303. In addition, the “IC50 in SW1990 cells, ratio to DXD” value in [2] is 0.3581. The “IC50 in H23 cells, ratio to DXD” value with H23 (NSCLC) cells is reported as 0.1245. Besides, the “IC50 in PA-1 cells, ratio to DXD” value in the test on PA-1 (Ovarian) cells was 0.3572. For the same molecule, the “IC50 in SW1573 cells, ratio to DXD” value in the test with SW1573 (NSCLC) cells amounted to 0.3310. For the same molecule, in the test with N87 gastric cancer cells, the “IC50 on N87 cells, ratio to DXD” value was determined as 0.4782. Also, the “IC50 in H82 cells, ratio to DXD” value in the test with H82 (SCLC) cells turned out to be 0.5103. Moreover, the “IC50 in HT-29 cells, ratio to DXD” value in the test on HT-29 (Colon) cells is 0.1376. For the same molecule, the “IC50 in H1650 cells, ratio to DXD” value in the test with H1650 (NSCLC) cells is recorded as 0.1570. The “IC50 in A549 cells, ratio to DXD” value in the test on A549 (NSCLC) cells was 0.1645. In the test with OVCAR3 (Ovarian) cells, the “IC50 in OVCAR3 cells, ratio to DXD” value was 0.2269. In test [3], the “IC50 on 468 cells, ratio to DXD” value was found to be 0.3546. In the test on Colo-205 (Colon) cells, the “IC50 in Colo-205 cells, ratio to DXD” value is 0.2938.
